PubChem BioAssay (NCI)
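Assay format: 96-well plates, 48-hour exposure. The concentration for 50% growth inhibition is given as GI50. TGI: concentration producing complete growth inhibition.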

How the values were obtained:
Assay in all cases: NCI tumour cell line growth inhibition, 48 h
[1] = tested on: SN12K1 renal
[2] = tested on: MOLT-4 leukemia
[3] = tested on: RPMI-8226 leukemia
[4] = tested on: SW-620 colon
[5] = tested on: K-562 leukemia
[6] = tested on: EKVX NSCLC
[7] = tested on: LOX IMVI melanoma
[8] = tested on: KM12 colon
[9] = tested on: NCI-H226 lung
[10] = tested on: SNB-75 CNS
[11] = tested on: NCI-H460 lung
[12] = tested on: SF-268 CNS
[13] = tested on: SK-MEL-5 melanoma
[14] = tested on: UO-31 renal
[15] = tested on: SK-MEL-28 melanoma
[16] = tested on: UACC-257 melanoma
[17] = tested on: SN12C renal
[18] = tested on: HCC-2998 colon
[19] = tested on: UACC-62 melanoma
[20] = tested on: HCT-15 colon
[21] = tested on: A498 renal
[22] = tested on: OVCAR-3 ovarian
[23] = tested on: SF-539 CNS
[24] = tested on: MALME-3M melanoma
[25] = tested on: U251 CNS
[26] = tested on: OVCAR-4 ovarian
[27] = tested on: OVCAR-5 ovarian

Question: What does the source list for `C=Cc1ccccc1` (tested in a mixture with another compound)?
Answer: GI50 [1]: > 75 µg/mL; TGI [1]: > 75 µg/mL; GI50 [2]: > 75 µg/mL; TGI [2]: > 75 µg/mL; GI50 [3]: > 75 µg/mL; TGI [3]: > 75 µg/mL; GI50 [4]: > 75 µg/mL; TGI [4]: > 75 µg/mL; GI50 [5]: > 75 µg/mL; TGI [5]: > 75 µg/mL; GI50 [6]: > 75 µg/mL; TGI [6]: > 75 µg/mL; GI50 [7]: > 75 µg/mL; TGI [7]: > 75 µg/mL; GI50 [8]: > 75 µg/mL; TGI [8]: > 75 µg/mL; GI50 [9]: > 75 µg/mL; TGI [9]: > 75 µg/mL; GI50 [10]: 28.3 µg/mL; TGI [10]: > 75 µg/mL; GI50 [11]: > 75 µg/mL; TGI [11]: > 75 µg/mL; GI50 [12]: > 75 µg/mL; TGI [12]: > 75 µg/mL; GI50 [13]: > 75 µg/mL; TGI [13]: > 75 µg/mL; GI50 [14]: > 75 µg/mL; TGI [14]: > 75 µg/mL; GI50 [15]: > 75 µg/mL; TGI [15]: > 75 µg/mL; GI50 [16]: > 75 µg/mL; TGI [16]: > 75 µg/mL; GI50 [17]: > 75 µg/mL; TGI [17]: > 75 µg/mL; GI50 [18]: > 75 µg/mL; TGI [18]: > 75 µg/mL; GI50 [19]: > 75 µg/mL; TGI [19]: > 75 µg/mL; GI50 [20]: > 75 µg/mL; TGI [20]: > 75 µg/mL; GI50 [21]: > 75 µg/mL; TGI [21]: > 75 µg/mL; GI50 [22]: > 75 µg/mL; TGI [22]: > 75 µg/mL; GI50 [23]: > 75 µg/mL; TGI [23]: > 75 µg/mL; GI50 [24]: > 75 µg/mL; TGI [24]: > 75 µg/mL; GI50 [25]: > 75 µg/mL; TGI [25]: > 75 µg/mL; GI50 [26]: > 75 µg/mL; TGI [26]: > 75 µg/mL; GI50 [27]: > 75 µg/mL
